# Test results as given in patent publication US20090018136A1, “METHODS AND COMPOSITIONS FOR THE TREATMENT OF VASCULAR DISEASE” (priority 2005, published 2009).
# Legend:
# [1] = test system: coronary blood flow velocity; settings: BH4 infused during angiography, patients with endothelial dysfunction; cited from earlier work
# [2] = test system: venous grafts and arteries; settings: acute BH4; diabetic subjects undergoing coronary artery bypass graft surgery; cited from earlier work
# [3] = test system: hypertensive patients; test: Study 1: blood pressure and heart rate during 8 weeks of oral BH4; assay type: in vivo, human
# Procedure: Prior studies have used parenteral infusion of BH4 or a single oral dose; thus it was not known whether long-term oral BH4 over a period of days to weeks would result in a sustained improvement in endothelial dysfunction. […] Two studies were conducted to investigate the duration of action of oral BH4 and the response of hypertensive subjects to different doses of BH4. […] Patients were continued on their current anti-hypertensive therapy which remained unchanged. […] BH4 powder was obtained from Schircks Laboratories (Jona, Switzerland). BH4 when administered with vitamin C was compounded with vitamin C at a ratio of 1 mg of vitamin C/1 mg BH4 into appropriate sized capsules. Subjects were advised to keep the pills in a freezer or refrigerator. Eight subjects were recruited, 3 male, mean age 60.5±10.9 years. Subjects were assigned to one of two groups. One group received BH4 10 mg/kg/day (n=4) and the other group received 5 mg/kg/day (n=4) given in two divided doses orally for 8 weeks. These dosages were based on dosing of BH4 used in phenylketonuria. Weekly BP measurements were made throughout the treatment period, and at one week and 6 weeks after discontinuation. Mean blood pressure was calculated as: (SBP+2×DBP)/3. For both study 1 and study 2, the primary end point after statistical analysis was a reduction of systolic, mean and diastolic BP during BH4 therapy. Secondary end points included improvement of endothelial function as FMD. Linear mixed effects models for repeated measures data were used to analyze change in BP from baseline to end of treatment period and differences in change between 100 mg and 200 mg dose groups. A quadratic term for week was included in the model to account for non-linear trends over the treatment period. Dose, week and week squared were the main effect terms in the model; dose by week and dose by week squared were the interaction terms in the model. Significant interaction terms indicate a difference in the pattern of change between the two dose groups. FMD data was analyzed using the two-tailed student t-test.
# [4] = test system: patients with poorly controlled hypertension; settings: cited from earlier work
# [5] = patients with Type II diabetes and coronary heart disease compared to control subjects; cited from earlier work
# [6] = test system: beagles; settings: dog, in vivo, po, 100 mg/kg
# Procedure: This study evaluated the cardiovascular effects of high doses of 6R-BH4 in combination with the PDE5 inhibitor sildenafil citrate in vivo. Eight male research nonnaïve and naïve purebred beagles were dosed in a double Latin square crossover design as described in the following table. All animals were dosed by oral gavage. Test articles were administered at a dose volume of 5 mL/kg (for a total volume of 10 mL/kg for the combination dose); control animals were dosed at a dose volume of 10 mL/kg. 6R-BH4 (sapropterin dihydrochloride) provided as 300 mg tablets (100 mg active 6R-BH4/tablet) stored at room temperature with desiccant.
# At initiation of treatment, the animals were approximately 7 to 10 months old, and their body weights prior to dosing ranged from 7.8 to 12.0 kg.
# At least 2 weeks prior to initiation of treatment, animals were fasted overnight, anesthetized, and an electrocardiogram (ECG) and blood pressure transmitter were implanted into the abdomen and sutured to the abdominal wall. The blood pressure catheter was placed in an artery and advanced to the abdominal aorta. Animals were checked twice daily (a.m. and p.m.) for mortality, abnormalities, and signs of pain and distress. Additional findings were recorded as observed.
# Detailed observations were taken three times during the predose phase (including the day before dosing) and on Days 3 and 10 of the dosing phase. For each dosing day, ECG and pressure measurements were recorded for at least 90 minutes prior to dosing, continuously for at least 8 hours after dosing, and then for one period of at least 15 minutes in duration each hour through at least 24 hours postdose. Blood pressure measurements included systolic, diastolic, and mean arterial pressures and pulse pressure (systolic-diastolic). […]
# Quantitative evaluation of ECG measurements, including RR interval, QT, and rate-corrected QT (QTc, using Fridericia's method), were done.
# Positive inotropic effects (+dP/dtmax) and heart rate were calculated from a left ventricular pressure signal predose and approximately 2, 4, 8, 12, and 24 hours postdose. […]
structure (smiles),measurement,setting,value
"C[C@H](O)[C@H](O)[C@H]1CNc2nc(N)[nH]c(=O)c2N1 [BH4, tetrahydrobiopterin]",abnormal vasoconstriction to acetylcholine,[1],prevented
same,vascular function in venous grafts and arteries,[2],restores
same,change in diastolic BP,[3]; Study 1,did not reach statistical significance
same,change in heart rate with BH4,[3]; Study 1,no significant change
same,differences between the 5 mg/kg and 10 mg/kg doses of BH4,[3]; Study 1,no statistically significant differences
same,BP after discontinuation of therapy,"[3]; Study 1, 6 weeks after discontinuation, p=ns compared to baseline",returned toward pre-treatment levels
same,systolic BP lower by a mean of,"[3]; Study 1, after 3 weeks, p=0.004",13±9 mmHg
same,systolic BP lower by a mean of,"[3]; Study 1, after 5 weeks, p=0.04, persisted for the 8 weeks of treatment",15±15 mmHg
same,reduction in systolic BP with BH4,"[3]; Study 1, combined group (5 and 10 mg/kg/day oral, two divided doses, 8 weeks), p=0.005 quadratic trend",significant reduction
same,reduction in mean arterial BP with BH4,"[3]; Study 1, combined group, 8 weeks, p=0.01",significant reduction
same,duration for which BP reduction was sustained,"[3]; continuous therapy, without tachyphylaxis",up to 8 weeks
same,blood pressure after cessation of therapy,[4]; 6 weeks after cessation,returned to baseline values
same,FMD following withdrawal,[4]; after 1 week following withdrawal,returned to baseline
same,FMD,"[4]; after 8 weeks of oral BH4 (5 mg/kg/d, 10 mg/kg/d), eight patients",increased significantly
same,treatment time after which blood pressure reduction was significant,"[4]; human, in vivo",3 weeks
same,systolic and diastolic pressures,[4]; oral BH4 5 or 10 mg/kg/d over 8 weeks,significantly reduced
same,insulin sensitivity,[5],increases
same,effect on any of the cardiovascular parameters measured,[6],No effect
